Laboratory results: patent publication US7846928B2, “Substituted pyrazolopyridines and salts thereof, pharmaceutical compositions comprising same, methods of preparing same and uses of same” (Bayer Schering Pharma AG, priority 2006, dated 2010)

Biological target: Tie2 (Homo sapiens, UniProt Q02763)
Assay: Tie-2-Kinase HTRF-Assay without kinase preactivation (assay 2)
Assay type: biochemical
Set-up: fusion protein of GST and the intracellular domains of Tie-2; GST; made in house; host or cells: insect cells (Hi-5)
Details: GST-Tie-2 without preactivation, 10 μM ATP; pIC50 = -log IC50 molar
Excerpt: Tie2-inhibitory activity of compounds of the present invention was quantified employing two Tie2 HTRF assay as described in the following paragraphs.
A recombinant fusion protein of GST and the intracellular domains of Tie-2, expressed in insect cells (Hi-5) and purified by Glutathion-Sepharose affinity chromatography was used as kinase. Alternatively, commercially available GST-Tie2-fusion protein (Upstate Biotechnology, Dundee, Scotland) can be used As substrate for the kinase reaction the biotinylated peptide biotin-Ahx-EPKDDAYPLYSDFG (C-terminus in amid form) was used which can be purchased e.g. from the company Biosynthan GmbH (Berlin-Buch, Germany). Detection of phosphorylated product is achieved specifically by a trimeric detection complex consisting of the phosphorylated substrate, streptavidin-XLent (SA-XLent) which binds to biotin, and Europium Cryptate-labeled anti-phosphotyrosine antibody PT66 which binds to phosphorylated tyrosine.
Tie-2 (3.5 ng/measurement point) was incubated for 60 min at 22° C. in the presence of 10 μM adenosine-tri-phosphate (ATP) and 1 μM substrate peptide (biotin-Ahx-EPKDDAYPLYSDFG-NH2) with different concentrations of test compounds (0 μM and concentrations in the range 0.001-20 μM) in 5 μl assay buffer [50 mM Hepes/NaOH pH 7, 10 mM MgCl2, 0.5 mM MnCl2, 1.0 mM dithiothreitol, 0.01% NP40, protease inhibitor mixture (“Complete w/o EDTA” from Roche, 1 tablet per 2.5 ml), 1% (v/v) dimethylsulfoxide]. The reaction was stopped by the addition of 5 μl of an aqueous buffer (25 mM Hepes/NaOH pH 7.5, 0.28% (w/v) bovine serum albumin) containing EDTA (90 mM) and the HTRF (Homogeneous Time Resolved Fluorescence) detection reagents streptavidine-XLent (0.2 μM, from Cis Biointernational, Marcoule, France) and PT66-Eu-Chelate (0.3 ng/μl; a europium-chelate labelled anti-phospho-tyrosine antibody from Perkin Elmer).
The resulting mixture was incubated 1 h at 22° C. to allow the binding of the biotinylated phosphorylated peptide to the streptavidine-XLent and the PT66-Eu-Chelate. Subsequently the amount of phosphorylated substrate peptide was evaluated by measurement of the resonance energy transfer from the PT66-Eu-Chelate to the streptavidine-XLent. Therefore, the fluorescence emissions at 620 nm and 665 nm after excitation at 350 nm was measured in a HTRF reader, e.g. a Rubystar (BMG Labtechnologies, Offenburg, Germany) or a Viewlux (Perkin-Elmer). The ratio of the emissions at 665 nm and at […] was taken as the measure for the amount of phosphorylated substrate peptide. The data were normalised (enzyme reaction without inhibitor=0% inhibition, all other assay components but no enzyme=100% inhibition) and IC50 values were calculated by a 4 parameter fit using an inhouse software.

Chain of Tie2 (Q02763 770-1124 limits assumed): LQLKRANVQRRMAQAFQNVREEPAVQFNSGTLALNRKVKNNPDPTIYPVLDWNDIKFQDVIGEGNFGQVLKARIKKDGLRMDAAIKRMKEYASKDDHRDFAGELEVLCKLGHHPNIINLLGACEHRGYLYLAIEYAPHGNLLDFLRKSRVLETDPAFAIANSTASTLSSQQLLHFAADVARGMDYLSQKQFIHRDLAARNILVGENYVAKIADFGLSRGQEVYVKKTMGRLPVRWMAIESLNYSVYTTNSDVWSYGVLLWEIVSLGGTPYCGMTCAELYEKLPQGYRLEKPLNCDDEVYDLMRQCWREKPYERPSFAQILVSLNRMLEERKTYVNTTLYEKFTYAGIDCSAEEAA

| Structure (SMILES) | IC50 [µM] |
| --- | --- |
| CCc1cccc(NC(=O)Nc2ccc(-c3cc(C(C)(C)C)nc4[nH]ncc34)cc2)c1 [1.1, 1-[4-(6-tert-Butyl-1H-pyrazolo[3,4-b]pyridin-4-yl)-phenyl]-3-(3-ethylphenyl)-urea] | < 0.501 |
| CC(C)c1cc(-c2ccc(NC(=O)Nc3cccc(C(F)(F)F)c3)cc2)c2cn[nH]c2n1 [1.2, 1-[4-(6-Isopropyl-1H-pyrazolo[3,4-b]pyridin-4-yl)-phenyl]-3-(3-trifluoromethyl-phenyl)-urea] | < 0.501 |
| CC(C)c1cc(-c2ccc(NC(=O)Nc3cccc(C(F)(F)F)c3)cc2)c2cnn(C)c2n1 [1.3, 1-[4-(6-Isopropyl-1-methyl-1H-pyrazolo[3,4-b]pyridin-4-yl)-phenyl]-3-(3-trifluoromethyl-phenyl)-urea] | < 0.501 |
| Cn1ncc2c(-c3ccc(NC(=O)Nc4cccc(C(F)(F)F)c4)cc3)ccnc21 [1.4, 1-[4-(1-Methyl-1H-pyrazolo[3,4-b]pyridin-4-yl)-phenyl]-3-(3-trifluoromethyl-phenyl)-urea] | < 0.501 |
| Cc1ccc(F)c(NC(=O)Nc2ccc(-c3ccnc4c3cnn4C)cc2)c1 [1.7, 1-(2-Fluoro-5-methyl-phenyl)-3-[4-(1-methyl-1H-pyrazolo[3,4-b]pyridin-4-yl)-phenyl]-urea] | < 0.501 |
| Cn1ncc2c(-c3ccc(NC(=O)Nc4cc(C(F)(F)F)ccc4F)cc3)ccnc21 [1.8, 1-(2-Fluoro-5-trifluoromethyl-phenyl)-3-[4-(1-methyl-1H-pyrazolo[3,4-b]-pyridin-4-yl)-phenyl]-urea] | < 0.501 |
| Cc1cccc(NC(=O)Nc2ccc(-c3cc(C(C)(C)C)nc4[nH]ncc34)cc2)c1 [1.11, 1-[4-(6-tert-Butyl-1H-pyrazolo[3,4-b]pyridin-4-yl)-phenyl]-3-m-tolyl-urea] | 0.501 to 1 |
| CN1CCN(Cc2ccc(NC(=O)Nc3ccc(-c4cc(C(C)(C)C)nc5[nH]ncc45)cc3)cc2C(F)(F)F)CC1 [1.15, 1-[4-(6-tert-Butyl-1H-pyrazolo[3,4-b]pyridin-4-yl)-phenyl]-3-[4-(4-methyl-piperazin-1-ylmethyl)-3-trifluoromethyl-phenyl]-urea] | < 0.501 |
| Cc1cc(-c2ccc(NC(=O)Nc3cccc(C(F)(F)F)c3)cc2)c2cn[nH]c2n1 [1.18, 1-[4-(6-Methyl-1H-pyrazolo[3,4-b]pyridin-4-yl)-phenyl]-3-(3-trifluoromethyl-phenyl)-urea] | < 0.501 |
| O=C(Nc1ccc(-c2ccnc3[nH]ncc23)cc1)Nc1cccc(C(F)(F)F)c1 [1.20, 1-[4-(1H-Pyrazolo[3,4-b]pyridin-4-yl)-phenyl]-3-(3-trifluoromethyl-phenyl)-urea] | < 0.501 |
| Cc1ccc(F)c(NC(=O)Nc2ccc(-c3ccnc4[nH]ncc34)cc2)c1 [1.22, 1-(2-Fluoro-5-methyl-phenyl)-3-[4-(1H-pyrazolo[3,4-b]pyridin-4-yl)-phenyl]-urea] | 0.501 to 1 |
| CN1CCC(Oc2ccc(NC(=O)Nc3ccc(-c4ccnc5c4cnn5C)cc3)cc2C(F)(F)F)CC1 [1.23, 1-[4-(1-Methyl-piperidin-4-yloxy)-3-trifluoromethyl-phenyl]-3-[4-(1-methyl-1H-pyrazolo[3,4-b]pyridin-4-yl)-phenyl]-urea] | < 0.501 |
| CN1CCN(Cc2ccc(NC(=O)Nc3ccc(-c4ccnc5c4cnn5C)cc3)cc2C(F)(F)F)CC1 [1.24, 1-[4-(4-Methyl-piperazin-1-ylmethyl)-3-trifluoromethyl-phenyl]-3-[4-(1-methyl-1H-pyrazolo[3,4-b]pyridin-4-yl)-phenyl]-urea] | < 0.501 |
| CN(C)C(=O)C1(c2cc(-c3ccc(NC(=O)Nc4cccc(C(F)(F)F)c4)cc3)c3cnn(C)c3n2)CC1 [1.26, 1-(1-Methyl-4-{4-[3-(3-trifluoromethyl-phenyl)-ureido]-phenyl}-1H-pyrazolo[3,4-b]pyridin-6-yl)-cyclopropane-carboxylic acid dimethylamide] | < 0.501 |
| Cc1ccc(F)c(NC(=O)Nc2ccc(-c3cc(C4(C(=O)N(C)C)CC4)nc4c3cnn4C)cc2)c1 [1.29, 1-(4-{4-[3-(2-Fluoro-5-methyl-phenyl)-ureido]-phenyl}-1-methyl-1H-pyrazolo[3,4-b]pyridin-6-yl)-cyclopropane-carboxylic acid dimethylamide] | < 0.501 |
| CN1CCN(Cc2ccc(NC(=O)Nc3ccc(-c4ccnc5[nH]ncc45)cc3)cc2C(F)(F)F)CC1 [1.33, 1-[4-(4-Methyl-piperazin-1-yl-methyl)-3-trifluoromethyl-phenyl]-3-[4-(1H-pyrazolo[3,4-b]pyridin-4-yl)-phenyl]-urea] | < 0.501 |
| Cn1ncc2c(-c3ccc(NC(=O)Nc4cccc(C(F)(F)F)c4)cc3)cc(C3CCC3)nc21 [1.37, 1-[4-(6-Cyclobutyl-1-methyl-1H-pyrazolo[3,4-b]pyridin-4-yl)-phenyl]-3-(3-trifluoromethyl-phenyl)-urea] | < 0.501 |
| Cn1ncc2c(-c3ccc(NC(=O)Nc4cccc(C(F)(F)F)c4)cc3)cc(C3CCCCC3)nc21 [1.38, 1-[4-(6-Cyclohexyl-1-methyl-1H-pyrazolo[3,4-b]pyridin-4-yl)-phenyl]-3-(3-trifluoromethyl-phenyl)-urea] | < 0.501 |
| Cc1cc(-c2ccc(NC(=O)Nc3cc(F)cc(C(F)(F)F)c3)cc2)c2cnn(C)c2n1 [2.4, 1-[4-(1,6-Dimethyl-1H-pyrazolo[3,4-b]pyridin-4-yl)-phenyl]-3-(3-fluoro-5-trifluoromethyl-phenyl)-urea] | < 0.501 |
| Cc1cc(-c2ccc(NC(=O)Nc3ccc(F)c(C(F)(F)F)c3)cc2)c2cnn(C)c2n1 [2.5, 1-[4-(1,6-Dimethyl-1H-pyrazolo[3,4-b]pyridin-4-yl)-phenyl]-3-(4-fluoro-3-trifluoromethyl-phenyl)-urea] | 0.501 to 1 |
| COc1ccc(C(F)(F)F)cc1NC(=O)Nc1ccc(-c2cc(C)nc3c2cnn3C)cc1 [2.7, 1-[4-(1,6-Dimethyl-1H-pyrazolo[3,4-b]pyridin-4-yl)-phenyl]-3-(2-methoxy-5-trifluoromethyl-phenyl)-urea] | < 0.501 |
| Cn1ncc2c(-c3ccc(NC(=O)Nc4cccc(C(F)(F)F)c4)cc3)cc(CN3CCOCC3)nc21 [3.2, 1-[4-(1-Methyl-6-morpholin-4-ylmethyl-1H-pyrazolo[3,4-b]pyridin-4-yl)-phenyl]-3-(3-trifluoromethyl-phenyl)-urea] | < 0.501 |
| CCc1cccc(NC(=O)Nc2ccc(-c3cc(CN4CCOCC4)nc4c3cnn4C)cc2)c1 [3.4, 1-(3-Ethyl-phenyl)-3-[4-(1-methyl-6-morpholin-4-ylmethyl-1H-pyrazolo[3,4-b]pyridin-4-yl)-phenyl]-urea] | < 0.501 |
| Cc1ccc(F)c(NC(=O)Nc2ccc(-c3cc(CN4CCOCC4)nc4c3cnn4C)cc2)c1 [3.5, 1-(2-Fluoro-5-methyl-phenyl)-3-[4-(1-methyl-6-morpholin-4-ylmethyl-1H-pyrazolo[3,4-b]pyridin-4-yl)-phenyl]-urea] | < 0.501 |
